Results: patent US8129413B2, “Crystalline forms of MC4R agonist and process for synthesis” (Merck Sharp & Dohme Corp., priority 2005, dated 2012)

Columns and labels:
Format in all cases: physicochemical
[1] = Crystal form conversion on exposure to relative humidity
Method: (§1) Method 2 Drying the crystalline hydrate mono HCl salt of Compound I (1-7) at a temperature over about 4° C. and relative a humidity less than about 10% yields the crystalline anhydrous mono HCl salt Form I of Compound I (1-5). The crystalline hydrate mono HCl salt of Compound I (1-7) converts to the crystalline anhydrous mono HCl salt Form I of Compound I (1-5) by means of a continuous change; as the crystalline hydrate is dried, the x-ray diffraction pattern, solid-state carbon-13 CPMAS, and solid-state fluorine-19 MAS patterns merge from the crystalline hydrate to crystalline anhydrous Form I. Incomplete conversion to the anhydrous form I will yield a unique phase, not merely a mixture of crystalline anhydrous form I and crystalline hydrate.
Method 1 A solution of compound 1-3 from Example 1 (14.6 g, 26.7 mmol) in isopropyl acetate (91 ml, at 160 g/L) was agitated in vessel 1 at 15-25° C., and 0.5 N HCl/H2O solution (54.4 mL, 27.2 mmol) was added. The mixture was aged for 5-10 minutes with agitation followed by settling without agitation. The aqueous layer was removed and transferred to vessel 2. 20 ml of deionized water were charged to vessel 1, as a rinse of the isopropyl acetate layer. After agitating the isopropyl acetate-deionized water mixture for about 5 minutes, the aqueous layer was removed and combined with the aqueous layer in vessel 2. […]

[2] = Thermodynamic stability and interconversion of crystalline forms
Method: as §1

[3] = Storage stability of the free base

Question: For `CC(=O)N[C@@H](C)c1cc(Cl)ccc1C1CCN(C(=O)C2CN(C(C)(C)C)C[C@H]2c2ccc(F)cc2F)CC1` (stereo partly drawn) [Compound 1-5], which “relative humidity at which anhydrous Form I converts to crystalline hydrate mono HCl salt” value ([1]; exposure to humidity, continuous structural change) is on record?
Answer: greater than 20%

Question: For `CC(=O)N[C@@H](C)c1cc(Cl)ccc1C1CCN(C(=O)C2CN(C(C)(C)C)C[C@H]2c2ccc(F)cc2F)CC1` (stereo partly drawn) [Compound 1-6], which “physical stability of the crystal form (conversion to another form)” value ([2]; room temperature) is on record?
Answer: converts to crystalline anhydrous mono HCl salt Form I (1-5) at room temperature

Question: What does the source list for `CC(=O)N[C@@H](C)c1cc(Cl)ccc1C1CCN(C(=O)C2CN(C(C)(C)C)C[C@H]2c2ccc(F)cc2F)CC1` (stereo partly drawn) [Compound 1-7]?
Answer: thermodynamic stability among crystalline forms ([2]; ambient conditions): most thermodynamically stable crystalline form; relative humidity at which hydrate converts to anhydrous mono HCl salt Form I ([1]; drying at a temperature over about 4° C.): less than 10%

Question: What does the source list for `CC(=O)N[C@@H](C)c1cc(Cl)ccc1C1CCN(C(=O)[C@@H]2CN(C(C)(C)C)C[C@H]2c2ccc(F)cc2F)CC1` [Compound I, N-{(1S)-1-[2-(1-{[(3S,4R)-1-tert-butyl-4-(2,4-difluorophenyl)pyrrolidin-3-yl]carbonyl}piperidin-4-yl)-5-chlorophenyl]ethyl}acetamide]?
Answer: stability of the solid form ([3]; storage, light, heat): unstable, photosensitive and thermally sensitive; storage temperature above which subject to oxidation ([3]; stored): greater than −40 °C
